Experimental data published in patent publication US20170165295A1, “COMPOSITION FOR PREVENTING, ALLEVIATING OR TREATING CONSTIPATION, CONTAINING HIGH HARDNESS MINERAL WATER PREPARED FROM DEEP OCEAN WATER OR DESALINATED GROUNDWATER” (ARIBIO INC., priority 2012, published 2017).
Where a name gives a salt, the structure may show the parent alone. Marks after values point to notes of the source that are not given here.

Legend:
[1] = system: loperamide-induced constipated rats; experiment: Remnant fecal pellets in the colon of loperamide-induced constipated rats; type: in vivo
Procedure: (§1) 6-week-old rats (SLC, Japan) were used for an experiment after acclimatization to new environments for 7 days. Five rats were raised per cage at 20-25° C. and 45-50% humidity. The light-dark cycle was 12 hr: 12 hr, and water and food were freely available. The rats were classified into six groups (nine rats per group, a total of 54 rats) based on the body weight thereof. Specific groups are as follows:
(§2) Administration of Test Material Magnesium hydroxide (Mg(OH)2; MagMill™) was purchased from Samnam Pharm. In order to protect test materials from light and moisture, the test materials were stored in a refrigerator at 4° C. The mineral water was orally administered at 10 ml/kg for each time, at an interval of 6 hours (30 ml/kg/day), three times a day, for a total of six days. The administration for each time was conducted 1 hour after administration of loperamide 3 mg/kg. Magnesium hydroxide was mixed with distilled water, and the mixture was orally administered once a day for a total of six days, and the same amount of distilled water was orally administered at the time of second and third administrations. Distilled water, instead of mineral water, was administered to groups 1 and 2.
(§3) In order to induce constipation, loperamide hydrochloride (Sigma, MO, U.S.) 3 mg/kg was mixed with saline water 5 ml/kg, and the mixture was orally administered to animals 1 hour before administration of the test material, once a day, for a total of six days. Detailed methods are disclosed in Bustos et al. Acta Gastroenterol Latinoam, 1991; 21:3-9 and Wintola et al. BMC Gastroenterol, 2010; 10:95, which are incorporated by reference into the present specification.
The total number and mean thickness (short axis) of remnant fecal pellets in the colonic lumen were measured when the gastrointestinal charcoal transit ratio was measured.
(§4) Multiple comparison tests of the groups with different dosages were conducted. Variance homogeneity was examined using the Levene test (Levene A, Clin Otalary, 1981; 6:145-51). […] In cases where significant deviations from variance homogeneity were observed by the Levene test, the non-parametric comparison test and Kruskal-Wallis H test were conducted. When a significant difference was observed by the Kruskal-Wallis H test, the Mann-Whitney U (MW) test was used to determine the significance of specific pairwise comparisons. Statistical analyses were conducted using SPSS (Release 14K, SPSS Inc. USA; Ludbrook, Clin Exp Pharmacol Physiol, 1997; 24:294-6). In addition, the percentage change between the normal group and loperamide control was calculated to identify the severity of induced constipation, and then, in order to evaluate the efficacy of the test materials, the percent change compared with the loperamide control was calculated by equations 4 and 5.
(§5) Percent change compared with normal group (%)=(((normal group data)−(loperamide control data)/normal group data)×100) [Equation 4]
(§6) Percentage change (%) compared with loperamide control=(((loperamide control data−test material administered rat data)/(loperamide control data))×100) [Equation 5]

[2] = Body weight change of loperamide-induced constipated rats
Procedure: as §1, §2, §3
Body weight was measured once per day 1 day before the test material administration, at the day of the initiation of administration, and 1, 2, 3, 4, and 5 days after the initiation of administration, to verify the body weight change according to administration of the test material. All the animals were fasted (excluding water) for 5 days after the initiation of administration for one overnight in order to decrease the body weight difference due to feed ingestion and measure the intestinal charcoal transit ratio. In addition, the body weight gain was calculated by equation 1.
Body weight gain (g)=body weight at 6th administration last day−body weight at the day of the initiation of administration. [Equation 1]

[3] = system: loperamide-induced constipated rats; experiment: Fecal parameters in loperamide-induced constipated rats; type: in vivo; settings: for Fecal dry-weights / Fecal wet-weights / Numbers of fecal pellets / Water contents of fecal pellets: collected at 4th administration day (24 hrs), mean ± S.D. of nine rats
Procedure: as §1, §2, §3
The fecal pellets of each rat were collected 24 hours after the 4th administration day. The total number, wet weight, and water content of the fecal pellets were checked. The water content was calculated by equation 2 below:
Water content of fecal pellets (%)=((wet weight of fecal pellets−dry weight of fecal pellets)/wet weight of fecal pellets)×100 [Equation 2]
as §4, §5, §6

[4] = system: loperamide-induced constipated rats; experiment: Histomorphometry of the colon and remnant fecal pellets in loperamide-induced constipated rats; type: in vivo; settings: for Colon mucosa thicknesses / Fecal pellet surface mucous thickness / Mucous producing cell numbers: at sacrifice, 6 days of administration, mean ± S.D. of nine rats; for Mucous producing cell numbers: colonic mucosa
Procedure: as §1, §2, §3
Histopathological assessment of the colonic mucosa and remnant fecal pellets in the colonic lumen was conducted by the method of Wu et al. J Ethnopharmacol, 2011; 134:406-13, with minor modification. In short, the distal colon fragment containing one fecal pellet was isolated using ligatures, removed, and immediately fixed with 10% formaldehyde (when the gastrointestinal charcoal transit ratio was measured). The fixed tissue segments were paraffin-embedded, and sliced into 3 μm-thickness cross sections. The sliced samples were stained with Alcian blue at pH 2.5. Five tissue segments per group were prepared, and histological profiles thereof were interpreted. The histopathologist was blinded to the group distributions at the time of analysis.
Histomorphometry: The mean thickness of the mucosal layers at the fecal surface (μm/fecal pellet), mucous-producing cell number (cells/mm^2) per unit area in the colonic mucosa, and the colonic mucosal thickness (μm/colon) were measured by using an automated image analyzer (DMI-300, DMI, Korea) under a light microscope.
as §4, §5

[5] = system: loperamide-induced constipated rats; experiment: Gastrointestinal charcoal transit ratio in loperamide-induced constipated rats; type: in vivo; settings: for Gastrointestinal charcoal transit ratio / Length of charcoal meal transferred: during 30 min after charcoal meal, after 6th administration, mean ± S.D. of nine rats
Procedure: as §1, §2, §3
The gastrointestinal propulsion of the charcoal meal was checked by the method disclosed in Sagar et al. BMC Complement Altern Med, 2005; 5:18, with minor modification. Prior to the experiment, animals were fasted for 18 hours (water supplied). Ten minutes after the 6th administration (last) of the test material, animals of each group were fed with 1 ml of charcoal meal (3% suspension of activated charcoal in 0.5% aqueous methylcellulose). Thirty minutes after charcoal meal ingestion, the animals of each group were sacrificed, and the total small intestine length (from pyloric sphincter to appendix) and the charcoal meal transit distance were measured. The gastrointestinal charcoal transit ratio was calculated by equation 3 below:
Charcoal transit ratio (%)=(([…])/total small intestine length)×100 [Equation 3]
as §4, §5, §6

[6] = at sacrifice after 6th administration, 18 h fasting, mean ± S.D. of nine rats
[7] = percent change compared with the loperamide control
[8] = loperamide control 3 mg/kg, percent change compared with the normal group

[Mg+2].[OH-].[OH-] [Mg(OH)2, Magnesium hydroxide]
Remnant fecal pellets in the colon: Numbers [1, 6]: 1.89 ± 0.93^c | change in mean diameter of remnant fecal pellets in the colon [1, 7]: −18.76% | change in number of remnant fecal pellets in the colon [1, 7]: −51.43% | Remnant fecal pellets in the colon: Mean thicknesses ([1]; short axis, at sacrifice after 6th administration, 18 h fasting, mean ± S.D. of nine rats): 5.26 ± 0.38^c μm | Body weights at Last (6th) administration [B] ([2]; after overnight fasting, loperamide 3 mg/kg, Mg(OH)2 200 mg/kg/day or mineral water 30 ml/kg/day oral, mean ± S.D. of nine rats): 241.67 ± 10.36 g | Body weight gains [B − A] ([2]; last (6th) administration minus initiation of administration, mean ± S.D. of nine rats): 22.44 ± 4.19 g | change in weight gain during the administration period [2, 7]: 8.60% | Body weights at Initiation of administration [A] ([2]; rats given loperamide 3 mg/kg, Mg(OH)2 200 mg/kg/day or mineral water 30 ml/kg/day oral, 6 days, mean ± S.D. of nine rats): 219.22 ± 8.79 g | Body weights at Fifth administration ([2]; rats given loperamide 3 mg/kg, Mg(OH)2 200 mg/kg/day or mineral water 30 ml/kg/day oral, mean ± S.D. of nine rats): 260.33 ± 12.38 g | Fecal dry-weights [3]: 4.21 ± 0.55^a g/24 hr/rat | Fecal wet-weights [3]: 9.18 ± 0.88^dg g/24 hr/rat | Numbers of fecal pellets [3]: 52.33 ± 4.21^ef | Water contents of fecal pellets [3]: 53.50 ± 9.99^c % | change in number of fecal pellets for 24 hours, 4 days after administration [3, 7]: 17.94% | change in water content in fecal pellets for 24 hours, 4 days after administration [3, 7]: 18.12% | Colon mucosa thicknesses [4]: 164.16 ± 22.31^cd μm | Fecal pellet surface mucous thickness [4]: 24.33 ± 7.82^ab μm | Mucous producing cell numbers [4]: 313.56 ± 42.27^cd cells/mm^2 | change in colon mucosa thickness [4, 7]: 57.27% | change in fecal pellet surface mucosal thickness in the colon [4, 7]: 316.22% | change in mucous-producing cell number per unit area in the colonic mucosa [4, 7]: 75.17% | Gastrointestinal charcoal transit ratio [5]: 66.76 ± 3.47^ac % | Length of charcoal meal transferred [5]: 83.33 ± 6.06^a cm | change in intestinal charcoal transit ratio [5, 7]: 9.10%

CN(C)C(=O)C(CCN1CCC(O)(c2ccc(Cl)cc2)CC1)(c1ccccc1)c1ccccc1 [Loperamide, loperamide hydrochloride]
Remnant fecal pellets in the colon: Numbers [1, 6]: 3.89 ± 1.05^a | change in mean diameter of remnant fecal pellets in the colon [1, 8]: 57.96% | change in number of remnant fecal pellets in the colon [1, 8]: 118.75% | significant changes in body weight and weight gain ([2]; compared with the normal group and loperamide control): not observed | change in weight gain during the administration period ([2]; loperamide control 3 mg/kg, percent change compared with normal group): −7.92% | Fecal dry-weights [3]: 4.17 ± 0.63^a g/24 hr/rat | Fecal wet-weights [3]: 7.65 ± 1.25^d g/24 hr/rat | Numbers of fecal pellets [3]: 45.22 ± 4.97^d | Water contents of fecal pellets [3]: 45.29 ± 4.06^a % | change in number of fecal pellets for 24 hours, 4 days after administration [3, 8]: −27.45% | change in water content in fecal pellets for 24 hours, 4 days after administration [3, 8]: −17.47% | Colon mucosa thicknesses [4]: 104.38 ± 10.79^c μm | Fecal pellet surface mucous thickness [4]: 5.84 ± 2.53^a μm | Mucous producing cell numbers [4]: 179.00 ± 46.31^c cells/mm^2 | change in colon mucosa thickness [4, 8]: −70.97% | change in fecal pellet surface mucosal thickness in the colon [4, 8]: −89.93% | change in mucous-producing cell number per unit area in the colonic mucosa [4, 8]: −72.40% | Gastrointestinal charcoal transit ratio [5]: 61.20 ± 5.98^a % | Length of charcoal meal transferred [5]: 74.21 ± 6.41^a cm | change in intestinal charcoal transit ratio [5, 8]: −20.05%
